From patent US10472356B2, “Bicyclic ketone sulfonamide compounds” (AMGEN INC., priority 2015, dated 2019)

Experiments:
human Nav1.7 [1] = target: T1, human Nav1.7 (Homo sapiens, UniProt Q15858); experiment: Nav 1.7 IWB In Vitro Assay (IonWorks Barracuda); type: cell-based; conditions: HEK293 cells stably transfected with human Nav 1.7; IonWorks Barracuda population patch-clamp; cells clamped to −20 mV for 4 minutes with compound; 26th pulse; read-out: hNav1.7 IWB IC50
T1 construct: expressed in transfected cells; host or cells: HEK293
Experimental: Nav 1.7 IWB In Vitro Assay
HEK293 cells stably transfected with human Nav 1.7 were recorded in population patch-clamp mode with the IonWorks© Barracuda (IWB) automated electrophysiology system (Molecular Devices, LLC, Sunnyvale, Calif.). From a holding potential of −110 mV, sodium currents were elicited by a train of 26 depolarizations of 150 ms duration to −20 mV at a frequency of 5 Hz. Cells were then clamped to −20 mV for a period of 4 minutes in the presence of a single concentration of test compound. Following this compound incubation period, cells were clamped to −110 mV for three seconds to recover unbound channels and put through the same 26 pulse voltage protocol as above. Peak inward current during the 26th pulse to −20 mV in the presence of compound was divided by the peak inward current evoked by the 26th pulse to −20 mV in the absence of compound to determine percent inhibition. Concentration-response curves of percent inhibition as a function of concentration were generated to calculate IC50 values.

human Nav1.7 [2] = target: T1, human Nav1.7; experiment: Nav 1.7 In Vitro PatchXpress (PX) Assay; type: cell-based; conditions: HEK 293 cells stably transfected with human Nav1.7; PatchXpress whole cell voltage clamp; partially inactivated state (holding potential yielding 20 to 50% inactivation); read-out: hNav1.7 PX IC50
Experimental: Nav 1.7 In Vitro PatchXpress (PX) Assay
HEK 293 cells stably transfected with human Nav1.7 were recorded in whole cell voltage clamp mode with the PatchXpress automated electrophysiology system (Molecular Devices, LLC, Sunnyvale, Calif.). Compound effects were measured on a partially inactivated state of the sodium channel. Cells were clamped to a holding potential yielding 20 to 50% inactivation. To elicit sodium current, channels were activated by pulsing to −10 mV for 20 msec. This voltage protocol was repeated at a rate of 0.1 Hz throughout the experiment. A single concentration of test compound was applied to cells for a duration of 3 minutes. Peak sodium current was measured at the end of the compound addition period to determine percent inhibition. Three to five cells were tested per concentration, and IC50 curves were fitted to percent inhibition as a function of concentration.

T1 sequence (Q15858 whole entry): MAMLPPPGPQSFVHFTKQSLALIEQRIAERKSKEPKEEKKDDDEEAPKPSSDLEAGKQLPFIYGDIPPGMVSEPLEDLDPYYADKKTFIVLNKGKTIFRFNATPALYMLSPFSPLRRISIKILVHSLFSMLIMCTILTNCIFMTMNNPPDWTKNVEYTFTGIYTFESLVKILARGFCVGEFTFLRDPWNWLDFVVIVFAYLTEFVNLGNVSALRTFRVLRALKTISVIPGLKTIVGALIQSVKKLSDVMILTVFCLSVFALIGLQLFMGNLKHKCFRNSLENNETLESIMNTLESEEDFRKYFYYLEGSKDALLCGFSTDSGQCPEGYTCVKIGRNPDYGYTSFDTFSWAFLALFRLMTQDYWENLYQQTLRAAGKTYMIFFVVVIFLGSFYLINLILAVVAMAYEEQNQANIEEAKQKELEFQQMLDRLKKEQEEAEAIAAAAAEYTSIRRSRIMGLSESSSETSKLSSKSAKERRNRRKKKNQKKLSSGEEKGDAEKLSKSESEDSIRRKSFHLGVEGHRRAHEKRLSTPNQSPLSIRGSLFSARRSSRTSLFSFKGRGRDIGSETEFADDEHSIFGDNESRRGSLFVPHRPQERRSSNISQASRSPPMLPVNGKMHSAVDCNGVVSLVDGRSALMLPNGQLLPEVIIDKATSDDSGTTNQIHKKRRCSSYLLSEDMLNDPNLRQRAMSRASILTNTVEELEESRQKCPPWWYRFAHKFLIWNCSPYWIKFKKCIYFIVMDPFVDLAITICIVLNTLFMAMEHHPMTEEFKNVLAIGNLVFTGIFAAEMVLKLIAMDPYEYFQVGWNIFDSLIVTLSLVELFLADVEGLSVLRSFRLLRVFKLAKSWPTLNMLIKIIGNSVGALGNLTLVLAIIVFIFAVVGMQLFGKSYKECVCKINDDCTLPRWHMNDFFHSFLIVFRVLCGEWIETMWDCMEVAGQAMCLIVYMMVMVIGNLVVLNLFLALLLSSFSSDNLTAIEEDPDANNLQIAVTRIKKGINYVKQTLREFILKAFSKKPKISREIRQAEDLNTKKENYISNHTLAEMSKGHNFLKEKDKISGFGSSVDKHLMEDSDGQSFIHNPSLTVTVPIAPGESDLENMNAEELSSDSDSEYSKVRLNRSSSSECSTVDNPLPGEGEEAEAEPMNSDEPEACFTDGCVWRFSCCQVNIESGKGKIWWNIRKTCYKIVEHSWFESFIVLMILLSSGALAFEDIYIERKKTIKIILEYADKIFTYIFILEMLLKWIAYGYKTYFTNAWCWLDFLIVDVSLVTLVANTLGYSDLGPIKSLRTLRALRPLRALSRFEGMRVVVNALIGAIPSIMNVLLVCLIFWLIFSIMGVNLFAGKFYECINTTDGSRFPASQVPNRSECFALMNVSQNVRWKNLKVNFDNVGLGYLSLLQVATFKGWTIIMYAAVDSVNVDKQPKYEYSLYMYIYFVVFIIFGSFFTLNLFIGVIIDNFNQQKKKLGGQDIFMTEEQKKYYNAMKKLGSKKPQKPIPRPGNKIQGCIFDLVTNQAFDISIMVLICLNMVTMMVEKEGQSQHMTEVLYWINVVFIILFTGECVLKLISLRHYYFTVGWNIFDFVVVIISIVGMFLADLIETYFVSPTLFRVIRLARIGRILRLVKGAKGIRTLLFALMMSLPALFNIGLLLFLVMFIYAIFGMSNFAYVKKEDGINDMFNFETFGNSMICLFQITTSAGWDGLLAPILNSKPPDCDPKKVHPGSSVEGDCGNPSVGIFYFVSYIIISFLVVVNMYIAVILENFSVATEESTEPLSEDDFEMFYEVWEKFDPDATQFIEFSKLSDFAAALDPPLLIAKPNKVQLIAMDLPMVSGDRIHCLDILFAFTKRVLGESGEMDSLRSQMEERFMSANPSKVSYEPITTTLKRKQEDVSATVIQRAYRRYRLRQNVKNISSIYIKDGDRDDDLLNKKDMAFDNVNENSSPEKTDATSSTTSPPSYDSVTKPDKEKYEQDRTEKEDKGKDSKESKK

**Q.** For `COc1cc(-c2cc(F)cc(Cl)c2)c(F)cc1-n1c2c(ccc1=O)CN(S(=O)(=O)Nc1cc(C)ncn1)CC2` (racemic) [4-(Rac), (Rac)-1-(3′-chloro-2,5′-difluoro-5-methoxy-4-biphenylyl)-N-(6-methyl-4-pyrimidinyl)-2-oxo-1,5,7,8-tetrahydro-1,6-naphthyridine-6(2H)-sulfonamide], which IC50 (human Nav1.7 [1]) is on record?
**A.** The IC50 was 45.9 nM.

**Q.** And the IC50 (human Nav1.7 [2])?
**A.** Its IC50 is 386 nM.

**Q.** How did the IC50 (human Nav1.7 [1]) turn out when `COc1cc(-c2cc(F)cc(Cl)c2)c(F)cc1-n1c2c(ccc1=O)CN(S(=O)(=O)Nc1ccnc(C)n1)CC2` (racemic) [6-(Rac), (Rac)-1-(3′-chloro-2,5′-difluoro-5-methoxy-4-biphenylyl)-N-(2-methyl-4-pyrimidinyl)-2-oxo-1,5,7,8-tetrahydro-1,6-naphthyridine-6(2H)-sulfonamide] was run?
**A.** The IC50 was 101 nM.

**Q.** What about the IC50 (human Nav1.7 [2]) of the same molecule?
**A.** The IC50 was 666 nM.

**Q.** With `COc1cc(-c2cc(F)cc(Cl)c2)ccc1-n1c2c(ccc1=O)CN(S(=O)(=O)Nc1ccon1)CC2` (racemic) [7-(Rac), (Rac)-1-(3′-chloro-5′-fluoro-3-methoxy-4-biphenylyl)-N-3-isoxazolyl-2-oxo-1,5,7,8-tetrahydro-1,6-naphthyridine-6(2H)-sulfonamide] as the molecule, how does the IC50 (human Nav1.7 [1]) read?
**A.** The IC50 was 16.7 nM.

**Q.** What about the IC50 (human Nav1.7 [2]) of the same molecule?
**A.** Its IC50 is 254 nM.

**Q.** Which results are given for `COc1cc(-c2cc(F)cc(Cl)c2)ccc1-n1c2c(ccc1=O)CN(S(=O)(=O)Nc1cccnn1)CC2` (racemic) [8-(Rac), (Rac)-1-(3′-chloro-5′-fluoro-3-methoxy-4-biphenylyl)-2-oxo-N-3-pyridazinyl-1,5,7,8-tetrahydro-1,6-naphthyridine-6(2H)-sulfonamide]?
**A.** IC50 (human Nav1.7 [1]): 31.7 nM; IC50 (human Nav1.7 [2]): 350 nM

**Q.** How did the IC50 (human Nav1.7 [1]) turn out when `COc1cc(-c2cc(F)cc(F)c2)c(F)cc1-n1c2c(ccc1=O)CN(S(=O)(=O)Nc1ncc(F)cn1)CC2` (racemic) [Example 10-(Rac), (Rac)-N-(5-fluoro-2-pyrimidinyl)-2-oxo-1-(2,3′,5′-trifluoro-5-methoxy-4-biphenylyl)-1,5,7,8-tetrahydro-1,6-naphthyridine-6(2H)-sulfonamide] was run?
**A.** The IC50 was 163 nM.

**Q.** And the IC50 (human Nav1.7 [2])?
**A.** Its IC50 is 2280 nM.

**Q.** Which IC50 (human Nav1.7 [1]) does the source give for `COc1cc(-c2cc(F)cc(Cl)c2)c(F)cc1-n1c2c(ccc1=O)CN(S(=O)(=O)Nc1ccccn1)CC2` (racemic) [Example 11-(Rac), (Rac)-1-(3′-chloro-2,5′-difluoro-5-methoxy-4-biphenylyl)-2-oxo-N-2-pyridinyl-1,5,7,8-tetrahydro-1,6-naphthyridine-6(2H)-sulfonamide] here?
**A.** The IC50 was 60.9 nM.

**Q.** And the IC50 (human Nav1.7 [2])?
**A.** The IC50 was 371 nM.

**Q.** For `COc1cc(-c2cc(F)cc(Cl)c2)c(F)cc1-n1c2c(ccc1=O)CN(S(=O)(=O)Nc1ccc(F)cn1)CC2` (single isomer, unassigned) [Example 12-M, M-1-(3′-chloro-2,5′-difluoro-5-methoxy-4-biphenylyl)-N-(5-fluoro-2-pyridinyl)-2-oxo-1,5,7,8-tetrahydro-1,6-naphthyridine-6(2H)-sulfonamide], which IC50 (human Nav1.7 [2]) is on record?
**A.** The IC50 was 9340 nM.

**Q.** Which IC50 (human Nav1.7 [2]) does the source give for `COc1cc(-c2cc(F)cc(F)c2)c(F)cc1-n1c2c(ccc1=O)CN(S(=O)(=O)Nc1ncon1)CC2` (single isomer, unassigned) [Example 17-P, P-N-1,2,4-oxadiazol-3-yl-2-oxo-1-(2,3′,5′-trifluoro-5-methoxy-4-biphenylyl)-1,5,7,8-tetrahydro-1,6-naphthyridine-6(2H)-sulfonamide] here?
**A.** Its IC50 is > 1000 nM.

**Q.** With `COc1cc(-c2cc(F)cc(F)c2)c(F)cc1-n1c2c(ccc1=O)CN(S(=O)(=O)Nc1ccon1)CC2` (single isomer, unassigned) [Example 25-M, M-N-3-isoxazolyl-2-oxo-1-(2,3′,5′-trifluoro-5-methoxy-4-biphenylyl)-1,5,7,8-tetrahydro-1,6-naphthyridine-6(2H)-sulfonamide] as the molecule, how does the IC50 (human Nav1.7 [2]) read?
**A.** Its IC50 is > 1000 nM.

**Q.** How did the IC50 (human Nav1.7 [2]) turn out when `COc1cc(C(F)(F)F)ccc1-n1c2c(ccc1=O)CN(S(=O)(=O)Nc1ccon1)CC2` (single isomer, unassigned) [Example 26-M, M-N-3-isoxazolyl-1-(2-methoxy-4-(trifluoromethyl)phenyl)-2-oxo-1,5,7,8-tetrahydro-1,6-naphthyridine-6(2H)-sulfonamide] was run?
**A.** Its IC50 is > 1000 nM.

**Q.** For `COc1cc(C(F)(F)F)ccc1-n1c2c(ccc1=O)CN(S(=O)(=O)Nc1ccon1)CC2` (single isomer, unassigned) [Example 26-P, P-N-3-isoxazolyl-1-(2-methoxy-4-(trifluoromethyl)phenyl)-2-oxo-1,5,7,8-tetrahydro-1,6-naphthyridine-6(2H)-sulfonamide], which IC50 (human Nav1.7 [2]) is on record?
**A.** Its IC50 is > 1000 nM.

**Q.** With `COc1ccc(-c2ccc(C)c(Cl)c2)cc1-n1c2c(ccc1=O)CN(S(=O)(=O)Nc1cccnn1)CC2` (single isomer, unassigned) [Example 55-M, M-1-(3′-chloro-4-methoxy-4′-methyl-3-biphenylyl)-2-oxo-N-3-pyridazinyl-1,5,7,8-tetrahydro-1,6-naphthyridine-6(2H)-sulfonamide] as the molecule, how does the IC50 (human Nav1.7 [2]) read?
**A.** The IC50 was > 1000 nM.

**Q.** How did the IC50 (human Nav1.7 [2]) turn out when `COc1ccc(-c2ccc(C)c(Cl)c2)cc1-n1c2c(ccc1=O)CN(S(=O)(=O)Nc1cccnn1)CC2` (single isomer, unassigned) [Example 55-P, P-1-(3′-chloro-4-methoxy-4′-methyl-3-biphenylyl)-2-oxo-N-3-pyridazinyl-1,5,7,8-tetrahydro-1,6-naphthyridine-6(2H)-sulfonamide] was run?
**A.** The IC50 was 710 nM.

**Q.** Which IC50 (human Nav1.7 [2]) does the source give for `COc1cc(-c2ccc(Cl)c(C)c2)c(F)cc1-n1c2c(ccc1=O)CN(S(=O)(=O)Nc1ccncn1)CC2` [Example 1-P, P-1-(4′-chloro-2-fluoro-5-methoxy-3′-methyl-4-biphenylyl)-2-oxo-N-4-pyrimidinyl-1,5,7,8-tetrahydro-1,6-naphthyridine-6(2H)-sulfonamide] here?
**A.** Its IC50 is 29.6 nM.

**Q.** `COc1cc(-c2ccc(C)c(Cl)c2)c(F)cc1-n1c2c(ccc1=O)CN(S(=O)(=O)Nc1cccnn1)CC2` [Example 44, P-1-(3′-chloro-2-fluoro-5-methoxy-4′-methyl-4-biphenylyl)-2-oxo-N-3-pyridazinyl-1,5,7,8-tetrahydro-1,6-naphthyridine-6(2H)-sulfonamide] was tested. Which IC50 (human Nav1.7 [2]) did it give?
**A.** Its IC50 is 73.2 nM.

**Q.** `COc1cc(-c2cccc(C(F)(F)F)c2)c(F)cc1-n1c2c(ccc1=O)CN(S(=O)(=O)Nc1cccnn1)CC2` [Example 45, P-1-(2-fluoro-5-methoxy-3′-(trifluoromethyl)-4-biphenylyl)-2-oxo-N-3-pyridazinyl-1,5,7,8-tetrahydro-1,6-naphthyridine-6(2H)-sulfonamide] was tested. Which IC50 (human Nav1.7 [2]) did it give?
**A.** Its IC50 is 29.8 nM.

**Q.** `COc1cc(-c2cc(F)c(F)c(F)c2)c(F)cc1-n1c2c(ccc1=O)CN(S(=O)(=O)Nc1cccnn1)CC2` [Example 46, P-2-oxo-N-3-pyridazinyl-1-(2,3′,4′,5′-tetrafluoro-5-methoxy-4-biphenylyl)-1,5,7,8-tetrahydro-1,6-naphthyridine-6(2H)-sulfonamide] was tested. Which IC50 (human Nav1.7 [2]) did it give?
**A.** Its IC50 is 102 nM.

**Q.** For `COc1cc(-c2ccc(Cl)c(F)c2)c(F)cc1-n1c2c(ccc1=O)CN(S(=O)(=O)Nc1cccnn1)CC2` [Example 47, P-1-(4′-chloro-2,3′-difluoro-5-methoxy-4-biphenylyl)-2-oxo-N-3-pyridazinyl-1,5,7,8-tetrahydro-1,6-naphthyridine-6(2H)-sulfonamide], which IC50 (human Nav1.7 [2]) is on record?
**A.** The IC50 was 95.1 nM.

**Q.** `COc1cc(-c2ccc(F)c(Cl)c2)c(F)cc1-n1c2c(ccc1=O)CN(S(=O)(=O)Nc1cccnn1)CC2` [Example 48, P-1-(3′-chloro-2,4′-difluoro-5-methoxy-4-biphenylyl)-2-oxo-N-3-pyridazinyl-1,5,7,8-tetrahydro-1,6-naphthyridine-6(2H)-sulfonamide] was tested. Which IC50 (human Nav1.7 [2]) did it give?
**A.** The IC50 was 80.3 nM.

**Q.** Which IC50 (human Nav1.7 [2]) does the source give for `COc1cc(-c2cccc(Cl)c2F)c(F)cc1-n1c2c(ccc1=O)CN(S(=O)(=O)Nc1cccnn1)CC2` [Example 49, P-1-(3′-chloro-2,2′-difluoro-5-methoxy-4-biphenylyl)-2-oxo-N-3-pyridazinyl-1,5,7,8-tetrahydro-1,6-naphthyridine-6(2H)-sulfonamide] here?
**A.** Its IC50 is 168 nM.

**Q.** How did the IC50 (human Nav1.7 [2]) turn out when `COc1cc(-c2cnc(OC)c(Cl)c2)c(F)cc1-n1c2c(ccc1=O)CN(S(=O)(=O)Nc1cccnn1)CC2` [Example 50, P-1-(4-(5-chloro-6-methoxy-3-pyridinyl)-5-fluoro-2-methoxyphenyl)-2-oxo-N-3-pyridazinyl-1,5,7,8-tetrahydro-1,6-naphthyridine-6(2H)-sulfonamide] was run?
**A.** Its IC50 is 172 nM.

**Q.** `COc1ccc(-c2ccc(Cl)c(C)c2)cc1-n1c2c(ccc1=O)CN(S(=O)(=O)Nc1cccnn1)CC2` [Example 56-P, P-1-(4′-chloro-4-methoxy-3′-methyl-3-biphenylyl)-2-oxo-N-3-pyridazinyl-1,5,7,8-tetrahydro-1,6-naphthyridine-6(2H)-sulfonamide] was tested. Which IC50 (human Nav1.7 [2]) did it give?
**A.** Its IC50 is 493 nM.

**Q.** With `COc1ccc(-c2cccc(Cl)c2C)cc1-n1c2c(ccc1=O)CN(S(=O)(=O)Nc1cccnn1)CC2` [Example 57-P, P-1-(3′-chloro-4-methoxy-2′-methyl-3-biphenylyl)-2-oxo-N-3-pyridazinyl-1,5,7,8-tetrahydro-1,6-naphthyridine-6(2H)-sulfonamide] as the molecule, how does the IC50 (human Nav1.7 [2]) read?
**A.** The IC50 was 232 nM.
